Assays:
[1] = Hepatocyte Stability Assay, rat hepatocytes; type: in vitro ADME; conditions: cryopreserved hepatocytes, read-out: Rat Heps CLint
Procedure: (§1) 10 mM stock solutions of test compound and positive control are prepared in DMSO. Stock solutions are diluted to 100 μM by combining 198 μL of 50% acetonitrile/50% water and 2 μL of 10 mM stock solution. Verapamil is used as positive control in the assay. Vials of cryopreserved hepatocytes are thawed in a 37° C. water bath with gently shaking. The contents are poured into the 50 mL thawing medium conical tube. Vials are centrifuged at 100 g for 10 minutes at room temperature. Thawing medium is aspirated and hepatocytes are re-suspended with serum-free incubation medium to yield ˜1.5×10^6 cells/mL. Cell viability and density are counted using a Trypan Blue exclusion, and then cells are diluted with serum-free incubation medium to a working cell density of 0.5×10^6 viable cells/mL. A portion of the hepatocytes at 0.5×10^6 viable cells/mL are boiled for 5 min prior to adding to the plate as negative control to eliminate the enzymatic activity so that little or no substrate turnover should be observed. Aliquots of 198 μL hepatocytes are dispensed into each well of a 96-well non-coated plate. The plate is placed in the incubator for approximately 10 minutes. Aliquots of 2 μL of the 100 μM test compound and 2 μL positive control are added into respective wells of a non-coated 96-well plate to start the reaction. The final concentration of test compound is 1 μM. This assay is performed in duplicate. The plate is incubated in the incubator for the designed time points. 25 μL of contents are transferred and mixed with 6 volumes (150 μL) of cold acetonitrile with internal standard (100 nM alprazolam, 200 nM labetalol, 200 nM caffeine and 200 nM diclofenac) to terminate the reaction at time points of 0, 15, 30, 60, 90 and 120 minutes. Samples are centrifuged for 25 minutes at 3,220 g and aliquots of 150 μL of the supernatants are used for LC-MS/MS analysis.

Caco2 Permeability Assay = type: in vitro ADME; conditions: human; for efflux ratio at 2 h, 5 μM: pH 7.4, Caco-2, 5 μM, read-out: Efflux Ratio (ER); for Papp A→B at 2 h, 5 μM: pH 7.4, Caco-2, apical to basolateral
Procedure: Preparation of Caco-2 Cells: 50 μL and 25 mL of cell culture medium are added to each well of a Transwell® insert and reservoir, respectively. Then, the HTS Transwell® plates are incubated at 37° C., 5% CO2 for 1 hour before cell seeding. Caco-2 cell cells are diluted to 6.86×10^5 cells/mL with culture medium, and 50 μL of cell suspension are dispensed into the filter well of the 96-well HTS Transwell® plate. Cells are cultivated for 14-18 days in a cell culture incubator at 37° C., 5% CO2, 95% relative humidity. Cell culture medium is replaced every other day, beginning no later than 24 hours after initial plating.
Preparation of Stock Solutions: 10 mM stock solutions of test compounds are prepared in DMSO. The stock solutions of positive controls are prepared in DMSO at the concentration of 10 mM. Digoxin and propranolol are used as control compounds in this assay.
Assessment of Cell Monolayer Integrity: Medium is removed from the reservoir and each Transwell® insert and is replaced with prewarmed fresh culture medium. Transepithelial electrical resistance (TEER) across the monolayer is measured using Millicell Epithelial Volt-Ohm measuring system (Millipore, USA). The Plate is returned to the incubator once the measurement is done. The TEER value is calculated according to the following equation: TEER measurement (ohms)×Area of membrane (cm^2)=TEER value (ohm⋅cm^2). A TEER value greater than 230 ohm⋅cm^2 indicates a well-qualified Caco-2 monolayer.
Assay Procedure: The Caco-2 plate is removed from the incubator and washed twice with pre-warmed HBSS (10 mM HEPES, pH 7.4), and then incubated at 37° C. for 30 minutes. The stock solutions of control compounds are diluted in DMSO to get 1 mM solutions and then diluted with HBSS (10 mM HEPES, pH 7.4) to get 5 μM working solutions. The stock solutions of the test compounds are diluted in DMSO to get 1 mM solutions and then diluted with HBSS (10 mM HEPES and 4% BSA, pH 7.4) to get 5 μM working solutions. The final concentration of DMSO in the incubation system is 0.5%. To determine the rate of drug transport in the apical to basolateral direction. 75 μL of 5 μM working solutions of test compounds are added to the Transwell® insert (apical compartment) and the wells in the receiver plate (basolateral compartment) are filled with 235 μL of HBSS (10 mM HEPES and 4% BSA, pH 7.4). To determine the rate of drug transport in the basolateral to apical direction, 235 μL of 5 μM working solutions of test compounds are added to the receiver plate wells (basolateral compartment) and then the Transwell® inserts (apical compartment) are filled with 75 μL of HBSS (10 mM HEPES and 4% BSA, pH 7.4). Time 0 samples are prepared by transferring 50 μL of 5 μM working solution to wells of the 96-deepwell plate, followed by the addition of 200 μL cold methanol containing appropriate internal standards (IS). The plates are incubated at 37° C. for 2 hours. At the end of the incubation, 50 μL samples from donor sides (apical compartment for Ap→*Bl flux, and basolateral compartment for Bl→Ap) and receiver sides (basolateral compartment for Ap→Bl flux, and apical compartment for Bl→Ap) are transferred to wells of a new 96-well plate, followed by the addition of 4 volume of cold acetonitrile or methanol containing appropriate internal standards (IS). Samples are vortexed for 5 minutes and then centrifuged at 3,220 g for 40 minutes. An aliquot of 100 μL of the supernatant is mixed with an appropriate volume of ultra-pure water before LC-MS/MS analysis. To determine the Lucifer Yellow leakage after 2 hour transport period, stock solution of Lucifer yellow is prepared in ultra-pure water and diluted with HBSS (10 mM HEPES, pH 7.4) to reach the final concentration of 100 μM. 100 μL of the Lucifer yellow solution is added to each Transwell® insert (apical compartment), followed by filling the wells in the receiver plate (basolateral compartment) with 300 μL of HBSS (10 mM HEPES, pH 7.4). […]

[2] = target: T1, JAK2 (JH1 domain-catalytic, Y1007F,Y1008F) kinase (Homo sapiens, UniProt O60674, Y1007F/Y1008F); assay: JAK2 Binding Assay (JAK2 JH1 Domain Binding Assay); conditions: JAK2 JH1 domain binding, qPCR detection; read-out: JAK2 Kd
T1 construct: made in house; host or cells: transiently transfected HEK293 cells

[3] = Hepatocyte Stability Assay, human hepatocytes; type: in vitro ADME; conditions: cryopreserved hepatocytes, read-out: Human Heps CLint
Procedure: as §1

T1 sequence (O60674 849-1124 Y1007F/Y1008F limits assumed): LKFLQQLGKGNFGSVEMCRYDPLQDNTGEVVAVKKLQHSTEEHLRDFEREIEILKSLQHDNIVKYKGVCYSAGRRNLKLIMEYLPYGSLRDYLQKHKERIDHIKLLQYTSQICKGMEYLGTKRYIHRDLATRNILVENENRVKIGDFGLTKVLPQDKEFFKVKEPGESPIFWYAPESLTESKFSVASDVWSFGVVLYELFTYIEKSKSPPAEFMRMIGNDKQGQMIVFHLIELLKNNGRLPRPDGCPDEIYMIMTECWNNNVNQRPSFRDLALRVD

efflux ratio at 2 h, 5 μM (Caco2 Permeability Assay) | Papp A→B at 2 h, 5 μM (Caco2 Permeability Assay) [×10⁻⁶ cm/s] | Kd [2] [nM] | CLint scaled at 1 μM [3] [mL/min/kg] | SMILES | CLint scaled at 1 μM [1] [mL/min/kg]
2 to 5 | 6 | < 10 | ≤ 6 | Cn1cc(C(F)(F)F)cc(Nc2nc3ncc(Oc4ccnc(NC(=O)N5CCC5)c4)c(C#N)c3n2C)c1=O [Example I-7, N-(4-((7-cyano-1-methyl-2-((1-methyl-2-oxo-5-(trifluoromethyl)-1,2-dihydropyridin-3-yl)amino)-1H-imidazo[4,5-b]pyridin-6-yl)oxy)pyridin-2-yl)azetidine-1-carboxamide] | 17 to 35
≤ 2 | 12 | < 10 | 12 to 20 | COCC(=O)Nc1cc(Oc2cnc3nc(Nc4cc(C(F)(F)F)cn(C)c4=O)n(C)c3c2Cl)ccn1 [Example I-75, N-(4-((7-chloro-1-methyl-2-((1-methyl-2-oxo-5-(trifluoromethyl)-1,2-dihydropyridin-3-yl)amino)-1H-imidazo[4,5-b]pyridin-6-yl)oxy)pyridin-2-yl)-2-methoxyacetamide] | < 17
≤ 2 | 5 | < 10 | 12 to 20 | CC(=O)Nc1cc(Oc2cnc3nc(Nc4cc(C(F)(F)F)cn(C)c4=O)n(C)c3c2Cl)c(F)cn1 [Example I-88, N-(4-((7-chloro-1-methyl-2-((1-methyl-2-oxo-5-(trifluoromethyl)-1,2-dihydropyridin-3-yl)amino)-1H-imidazo[4,5-b]pyridin-6-yl)oxy)-5-fluoropyridin-2-yl)acetamide] | 17 to 35
5 to 10 | 2 | < 10 | 6 to 12 | COC1CN(C(=O)Nc2cc(Oc3cnc4nc(Nc5cc6n(n5)CCCC6(F)F)n(C)c4c3C#N)ccn2)C1 [Example I-26, N-(4-((7-cyano-2-((4,4-difluoro-4,5,6,7-tetrahydropyrazolo[1,5-a]pyridin-2-yl)amino)-1-methyl-1H-imidazo[4,5-b]pyridin-6-yl)oxy)pyridin-2-yl)-3-methoxyazetidine-1-carboxamide] | < 17
2 to 5 | 5 | < 10 | ≤ 6 | CC(=O)Nc1cc(Oc2cnc3nc(Nc4cc5n(n4)CCOCC5(C)C)n(C)c3c2C#N)ccn1 [Example I-118, N-(4-((7-cyano-2-((4,4-dimethyl-4,5,7,8-tetrahydropyrazolo[1,5-d][1,4]oxazepin-2-yl)amino)-1-methyl-1H-imidazo[4,5-b]pyridin-6-yl)oxy)pyridin-2-yl)acetamide] | < 17
5 to 10 | 2 | < 10 | 6 to 12 | Cn1c(Nc2cc3n(n2)CCOC3(C)C)nc2ncc(Oc3ccnc(NC(=O)O[C@@H]4CCOC4)c3)c(C#N)c21 [Example I-48, (R)-Tetrahydrofuran-3-yl(4-((7-cyano-2-((4,4-dimethyl-6,7-dihydro-4H-pyrazolo[5,1-c][1,4]oxazin-2-yl)amino)-1-methyl-1H-imidazo[4,5-b]pyridin-6-yl)oxy)pyridin-2-yl)carbamate] | 

SMILES | efflux ratio at 2 h, 5 μM (Caco2 Permeability Assay) | Papp A→B at 2 h, 5 μM (Caco2 Permeability Assay) [×10⁻⁶ cm/s] | Kd [2] [nM] | CLint scaled at 1 μM [3] [mL/min/kg] | CLint scaled at 1 μM [1] [mL/min/kg]
COC1CN(C(=O)Nc2cc(Oc3cnc4nc(Nc5cc6n(n5)CCC65CCC5)n(C)c4c3C#N)ccn2)C1 [Example I-61, N-(4-((7-cyano-2-((5′,6′-dihydrospiro[cyclobutane-1,4′-pyrrolo[1,2-b]pyrazol]-2′-yl)amino)-1-methyl-1H-imidazo[4,5-b]pyridin-6-yl)oxy)pyridin-2-yl)-3-methoxyazetidine carboxamide] | 2 to 5 | 3 | < 10 | ≤ 6 | 35 to 45
COC(=O)Nc1cc(Oc2cnc3nc(Nc4cc5n(n4)CCC54CCC4)n(C)c3c2C#N)ccn1 [Example I-57, methyl(4-((7-cyano-2-((5′,6′-dihydrospiro[cyclobutane-1,4′-pyrrolo[1,2-b]pyrazol]-2′-yl)amino)-1-methyl-1H-imidazo[4,5-b]pyridin-6-yl)oxy)pyridin-2-yl)carbamate] | ≤ 2 | 5 | < 10 | 6 to 12 | 35 to 45
COCC(=O)Nc1cc(Oc2cnc3nc(Nc4cc(C(F)(F)F)cn(C)c4=O)n(C)c3c2C#N)ccn1 [Example I-79, N-(4-((7-cyano-1-methyl-2-((1-methyl-2-oxo-5-(trifluoromethyl)-1,2-dihydropyridin-3-yl)amino)-1H-imidazo[4,5-b]pyridin-6-yl)oxy)pyridin-2-yl)-2-methoxyacetamide] | ≤ 2 | 15 | < 10 | 12 to 20 | 17 to 35
CO[C@@H]1CCN(C(=O)Nc2cc(Oc3cnc4nc(Nc5cc6n(n5)CCC65CCC5)n(C)c4c3C#N)ccn2)C1 [Example I-60, (R)-N-(4-((7-cyano-2-((5′,6′-dihydrospiro[cyclobutane-1,4′-pyrrolo[1,2-b]pyrazol]-2′-yl)amino)-1-methyl-1H-imidazo[4,5-b]pyridin-6-yl)oxy)pyridin-2-yl)-3-methoxypyrrolidine-1-carboxamide] | ≤ 2 | 6 | < 10 | 6 to 12 | 17 to 35
COCCOC(=O)Nc1cc(Oc2cnc3nc(Nc4cc5n(n4)CCC54CCC4)n(C)c3c2C#N)ccn1 [Example I-62, 2-methoxyethyl(4-((7-cyano-2-((5′,6′-dihydrospiro[cyclobutane-1,4′-pyrrolo[1,2-b]pyrazol]-2′-yl)amino)-1-methyl-1H-imidazo[4,5-b]pyridin-6-yl)oxy)pyridin-2-yl)carbamate] | ≤ 2 | 5 | < 10 | 6 to 12 | 17 to 35

Reference: patent US11970494B2, “6-heteroaryloxy benzimidazoles and azabenzimidazoles as JAK2 inhibitors” (Ajax Therapeutics, Inc., priority 2021, dated 2024)
